Laboratory results: ChEMBL document CHEMBL4257522, “Synthesis and preliminary anti-inflammatory and anti-bacterial evaluation of some diflunisal aza-analogs” (Medchemcomm, 2018)

How the values were obtained:
Streptococcus pyogenes [1] = assay: Toxicity in Streptococcus pyogenes ATCC 14289 up to 32 uM measured after 16 hrs; type: organism-based
Streptococcus pyogenes [2] = assay: Potentiation of erythromycin-induced antibacterial activity against Streptococcus pyogenes ATCC 14289 assessed as minimum modulatory concentration up to 32 uM measured after 16 hrs in presence of MIC/4 erythromycin; type: functional; conditions: ATCC 14289, 16 h, read-out: MEC
Streptococcus pyogenes [3] = assay: Potentiation of ciprofloxacin-induced antibacterial activity against Streptococcus pyogenes ATCC 14289 assessed as minimum modulatory concentration up to 32 uM measured after 16 hrs in presence of MIC/4 ciprofloxacin; type: functional; conditions: ATCC 14289, 16 h, read-out: MEC
Escherichia coli [4] = assay: Potentiation of tetracycline-induced antibacterial activity against Escherichia coli ATCC 43894 assessed as minimum modulatory concentration up to 32 uM measured after 16 hrs in presence of MIC/4 tetracycline; type: functional; conditions: ATCC 43894, 16 h, read-out: MEC
Pseudomonas aeruginosa [5] = assay: Potentiation of methicillin-induced antibacterial activity against Pseudomonas aeruginosa ATCC BAA-2108 assessed as minimum modulatory concentration up to 32 uM measured after 16 hrs in presence of MIC/4 methicillin; type: functional; conditions: ATCC BAA-2108, 16 h, read-out: MEC
Streptococcus pyogenes [6] = assay: Potentiation of tetracycline-induced antibacterial activity against Streptococcus pyogenes ATCC 14289 assessed as minimum modulatory concentration up to 32 uM measured after 16 hrs in presence of MIC/4 tetracycline; type: functional; conditions: ATCC 14289, 16 h, read-out: MEC
Escherichia coli [7] = assay: Potentiation of erythromycin-induced antibacterial activity against Escherichia coli ATCC 43894 assessed as minimum modulatory concentration up to 32 uM measured after 16 hrs in presence of MIC/4 erythromycin; type: functional; conditions: ATCC 43894, 16 h, read-out: MEC
Pseudomonas aeruginosa [8] = assay: Potentiation of ciprofloxacin-induced antibacterial activity against Pseudomonas aeruginosa ATCC BAA-2108 assessed as minimum modulatory concentration up to 32 uM measured after 16 hrs in presence of MIC/4 ciprofloxacin; type: functional; conditions: ATCC BAA-2108, 16 h, read-out: MEC
Macrophage cell line [9] = assay: Induction of IL-8 production in human PBMC-differentiated macrophages after 24 hrs by ELISA; type: cell-based
Escherichia coli [10] = assay: Toxicity in Escherichia coli ATCC 43894 up to 32 uM measured after 16 hrs; type: organism-based
Klebsiella pneumoniae [11] = assay: Potentiation of tetracycline-induced antibacterial activity against Klebsiella pneumoniae ATCC 13883 assessed as minimum modulatory concentration up to 32 uM measured after 16 hrs in presence of MIC/4 tetracycline; type: functional; conditions: ATCC 13883, 16 h, read-out: MEC
Enterococcus faecium [12] = assay: Potentiation of geneticin-induced antibacterial activity against Enterococcus faecium ATCC 700221 assessed as minimum modulatory concentration up to 32 uM measured after 16 hrs in presence of MIC/4 geneticin; type: functional; conditions: ATCC 700221, 16 h, read-out: MEC
Enterococcus faecium [13] = assay: Toxicity in Enterococcus faecium ATCC 700221 up to 32 uM measured after 16 hrs; type: organism-based; conditions: in vitro
Macrophage cell line [14] = assay: Cytotoxicity against human PBMC-differentiated macrophages treated for 24 hrs followed by compound washout and measured after 48 hrs by MTT assay; type: cell-based
Enterococcus faecium [15] = assay: Potentiation of tetracycline-induced antibacterial activity against Enterococcus faecium ATCC 700221 assessed as minimum modulatory concentration up to 32 uM measured after 16 hrs in presence of MIC/4 tetracycline; type: functional; conditions: ATCC 700221, 16 h, read-out: MEC
Klebsiella pneumoniae [16] = assay: Potentiation of geneticin-induced antibacterial activity against Klebsiella pneumoniae ATCC 13883 assessed as minimum modulatory concentration up to 32 uM measured after 16 hrs in presence of MIC/4 geneticin; type: functional; conditions: ATCC 13883, 16 h, read-out: MEC
Klebsiella pneumoniae [17] = assay: Potentiation of ciprofloxacin-induced antibacterial activity against Klebsiella pneumoniae ATCC 13883 assessed as minimum modulatory concentration up to 32 uM measured after 16 hrs in presence of MIC/4 ciprofloxacin; type: functional; conditions: ATCC 13883, 16 h, read-out: MEC
Pseudomonas aeruginosa [18] = assay: Potentiation of erythromycin-induced antibacterial activity against Pseudomonas aeruginosa ATCC BAA-2108 assessed as minimum modulatory concentration up to 32 uM measured after 16 hrs in presence of MIC/4 erythromycin; type: functional; conditions: ATCC BAA-2108, 16 h, read-out: MEC
Escherichia coli [19] = assay: Potentiation of ciprofloxacin-induced antibacterial activity against Escherichia coli ATCC 43894 assessed as minimum modulatory concentration up to 32 uM measured after 16 hrs in presence of MIC/4 ciprofloxacin; type: functional; conditions: ATCC 43894, 16 h, read-out: MEC
Enterococcus faecium [20] = assay: Potentiation of erythromycin-induced antibacterial activity against Enterococcus faecium ATCC 700221 assessed as minimum modulatory concentration up to 32 uM measured after 16 hrs in presence of MIC/4 erythromycin; type: functional; conditions: ATCC 700221, 16 h, read-out: MEC
Macrophage cell line [21] = assay: Induction of prostaglandin production in human PBMC-differentiated macrophages after 24 hrs by ELISA; type: cell-based
Staphylococcus aureus [22] = assay: Potentiation of ciprofloxacin-induced antibacterial activity against Staphylococcus aureus ATCC 33592 assessed as minimum modulatory concentration up to 32 uM measured after 16 hrs in presence of MIC/4 ciprofloxacin; type: functional; conditions: ATCC 33592, 16 h, read-out: MEC
Staphylococcus aureus [23] = assay: Toxicity in Staphylococcus aureus ATCC 33592 up to 32 uM measured after 16 hrs; type: organism-based
Macrophage cell line [24] = assay: Induction of IL-1beta production in human PBMC-differentiated macrophages after 24 hrs by ELISA; type: cell-based
Pseudomonas aeruginosa [25] = assay: Potentiation of tetracycline-induced antibacterial activity against Pseudomonas aeruginosa ATCC BAA-2108 assessed as minimum modulatory concentration up to 32 uM measured after 16 hrs in presence of MIC/4 tetracycline; type: functional; conditions: ATCC BAA-2108, 16 h, read-out: MEC
Staphylococcus aureus [26] = assay: Potentiation of tetracycline-induced antibacterial activity against Staphylococcus aureus ATCC 33592 assessed as minimum modulatory concentration up to 32 uM measured after 16 hrs in presence of MIC/4 tetracycline; type: functional; conditions: ATCC 33592, 16 h, read-out: MEC
Staphylococcus aureus [27] = assay: Potentiation of erythromycin-induced antibacterial activity against Staphylococcus aureus ATCC 33592 assessed as minimum modulatory concentration up to 32 uM measured after 16 hrs in presence of MIC/4 erythromycin; type: functional; conditions: ATCC 33592, 16 h, read-out: MEC
Streptococcus pyogenes [28] = assay: Potentiation of geneticin-induced antibacterial activity against Streptococcus pyogenes ATCC 14289 assessed as minimum modulatory concentration up to 32 uM measured after 16 hrs in presence of MIC/4 geneticin; type: functional; conditions: ATCC 14289, 16 h, read-out: MEC
Enterococcus faecium [29] = assay: Potentiation of methicillin-induced antibacterial activity against Enterococcus faecium ATCC 700221 assessed as minimum modulatory concentration up to 32 uM measured after 16 hrs in presence of MIC/4 methicillin; type: functional; conditions: ATCC 700221, 16 h, read-out: MEC
Klebsiella pneumoniae [30] = assay: Toxicity in Klebsiella pneumoniae ATCC 13883 up to 32 uM measured after 16 hrs; type: organism-based
Streptococcus pyogenes [31] = assay: Potentiation of methicillin-induced antibacterial activity against Streptococcus pyogenes ATCC 14289 assessed as minimum modulatory concentration up to 32 uM measured after 16 hrs in presence of MIC/4 methicillin; type: functional; conditions: ATCC 14289, 16 h, read-out: MEC
Staphylococcus aureus [32] = assay: Potentiation of geneticin-induced antibacterial activity against Staphylococcus aureus ATCC 33592 assessed as minimum modulatory concentration up to 32 uM measured after 16 hrs in presence of MIC/4 geneticin; type: functional; conditions: ATCC 33592, 16 h, read-out: MEC
Staphylococcus aureus [33] = assay: Potentiation of methicillin-induced antibacterial activity against Staphylococcus aureus ATCC 33592 assessed as minimum modulatory concentration up to 32 uM measured after 16 hrs in presence of MIC/4 methicillin; type: functional; conditions: ATCC 33592, 16 h, read-out: MEC

| Compound | Activity (Streptococcus pyogenes [1]) | minimal effective concentration (Streptococcus pyogenes [2]) [µM] | minimal effective concentration (Streptococcus pyogenes [3]) [µM] | minimal effective concentration (Escherichia coli [4]) [µM] | minimal effective concentration (Pseudomonas aeruginosa [5]) [µM] | minimal effective concentration (Streptococcus pyogenes [6]) [µM] | minimal effective concentration (Escherichia coli [7]) [µM] | minimal effective concentration (Pseudomonas aeruginosa [8]) [µM] | Activity (Macrophage cell line [9]) | Activity (Escherichia coli [10]) | minimal effective concentration (Klebsiella pneumoniae [11]) [µM] | minimal effective concentration (Enterococcus faecium [12]) [µM] | Activity (Enterococcus faecium [13]) | IC50 (Macrophage cell line [14]) [µM] | minimal effective concentration (Enterococcus faecium [15]) [µM] | minimal effective concentration (Klebsiella pneumoniae [16]) [µM] | minimal effective concentration (Klebsiella pneumoniae [17]) [µM] | minimal effective concentration (Pseudomonas aeruginosa [18]) [µM] | minimal effective concentration (Escherichia coli [19]) [µM] | minimal effective concentration (Enterococcus faecium [20]) [µM] | other results |
| --- | --- | --- | --- | --- | --- | --- | --- | --- | --- | --- | --- | --- | --- | --- | --- | --- | --- | --- | --- | --- | --- |
| O=C(O)c1cc(-c2ccc(F)cc2F)ncc1O | Non-Toxic | 4 | > 32 | > 32 | 8 | 8 | > 32 | 4 | Non-Toxic | Non-Toxic | > 32 | 4 | Non-Toxic | 97.3 | 4 | > 32 | > 32 | 4 | > 32 | 4 | Activity (Macrophage cell line [21]): Non-Toxic; minimal effective concentration (Staphylococcus aureus [22]): 16 µM; Activity (Staphylococcus aureus [23]): Non-Toxic; Activity (Macrophage cell line [24]): Non-Toxic; minimal effective concentration (Pseudomonas aeruginosa [25]): > 32 µM; minimal effective concentration (Staphylococcus aureus [26]): 2 µM; minimal effective concentration (Staphylococcus aureus [27]): 4 µM; minimal effective concentration (Streptococcus pyogenes [28]): 8 µM; minimal effective concentration (Enterococcus faecium [29]): 0.25 µM; Activity (Klebsiella pneumoniae [30]): Non-Toxic; minimal effective concentration (Streptococcus pyogenes [31]): 2 µM; minimal effective concentration (Staphylococcus aureus [32]): 2 µM; minimal effective concentration (Staphylococcus aureus [33]): 0.5 µM |
| O=C(O)c1cnc2c(F)cc(F)cc2c1O | Non-Toxic | 8 | > 32 | > 32 | 8 | 4 | > 32 | 4 | Non-Toxic | Non-Toxic | > 32 | 4 | Non-Toxic | 96.5 | 4 | > 32 | > 32 | 4 | > 32 | 4 | Activity (Macrophage cell line [21]): Non-Toxic; minimal effective concentration (Staphylococcus aureus [22]): 16 µM; Activity (Staphylococcus aureus [23]): Non-Toxic; Activity (Macrophage cell line [24]): Non-Toxic; minimal effective concentration (Pseudomonas aeruginosa [25]): > 32 µM; minimal effective concentration (Staphylococcus aureus [26]): 2 µM; minimal effective concentration (Staphylococcus aureus [27]): 1 µM; minimal effective concentration (Streptococcus pyogenes [28]): 4 µM; minimal effective concentration (Enterococcus faecium [29]): 0.25 µM; Activity (Klebsiella pneumoniae [30]): Non-Toxic; minimal effective concentration (Streptococcus pyogenes [31]): 1 µM; minimal effective concentration (Staphylococcus aureus [32]): 4 µM; minimal effective concentration (Staphylococcus aureus [33]): 0.5 µM |
